Data as given in patent US7361638B2, “Pharmaceutical combination for the treatment of tissue damage owing to an arterial irrigation defect” (Centro de Ingenieria Genetica y Biotecnologia, priority 2001, dated 2008).
“Also recorded” adds a separate entry of the source. Marks after values point to notes of the source that are not given here. Non-standard residues stand in square brackets, D forms with d. No end group written: not given here.

What was measured:
[1] = system: Intestinal Ischemia/Reperfusion Model; assay: Intestinal ischemia/reperfusion model (2 hours ischemia, 3 hours reperfusion); format: in vivo, Sprague Dawley rats; settings: 2 h ischemia, 3 h reperfusion
Experimental: Male Sprague Dawley (220-250 g) rats were randomly assigned to the following treatment groups: I: ischemia/normal saline. […] III: Ischemia/GHRP-6 100 μg/rat. IV: Ischemia/combination -EGF (5 μg)/GHRP-6 (2 μg)/rat. All the treatments were intraperitoneally administered 30 minutes prior to beginning the ischemia period. […] The artery was clamped for a period of 2 hours, thus provoking a severe ischemia time on the jejunum and ileum portions of the small intestine. Reperfusion was allowed for 3 hours. Rats were euthanized and subjected to complete autopsy. The small intestine was resected and the length of hemorrhagic mucosal and/or luminal damage was registered. Luminal content was flushed out with a standard volume of saline to determine the hemoglobin content. Intestinal mucosa was washed with warm normal saline, weighed and fragments used to determine total protein content by Lowry method. Other fragments were used for total DNA content and microscopic analysis. Villi/mucosal damage was microscopically analyzed as described by Chiu. This scale considers Grade 0 as intact mucosa progressing to Grade 5 as full-thickness denudation.

[2] = system: Experimental Model of Multiple Organ Damage by Extensive Burns; assay: Multiple organ damage by extensive burns (25% body surface scald), intestinal regeneration; format: in vivo, Balb/c mice; settings: for Final weight (body weight) / % Increase of body weight: 10th day following scalding; for Final weight (body weight): after 20 administrations, table prints EGF 0.01 μg, GHRP 0.01 μg, mean and SD, in g (unit assumed); for Crypts depth / No. of crypts in fission (×200) / Villous height / No. of metaphases per crypt (×200): day 10 post-scalding; for % Increase of body weight: initial to final weight; for No. of metaphases per crypt (×200): vincristine 1 mg/kg six hours prior to death
Experimental: The dorsal region of Balb/c mice (22-25 g) was depilated and subjected to hypodermic scalding involving a 25% of body surface area, by immersion in equilibrated water at 95-97° C. for 5 seconds. All the mice received 1.5 ml of normal saline solution as fluid resuscitation immediately after. This animal model had been previously established and calibrated in our laboratory, and is useful to our goals as extensive internal changes are steadily reproduced. On the next 24 hours the surviving mice were randomly assigned to the following groups: Reference. Sham burned mice receiving saline 0.9% (N=5). Scalded receiving only normal saline 0.9%. […] Scalded and treated with GHRP-6 (N=9; 0.1 μg GHRP-6/animal). Scalded, treated with the peptide combination (N=10). […] Administrations were done twice a day and until day 10 post-scalding. Once the treatments were completed, animals were weighed again and euthanized for necropsy and microscopic examination. Six hours prior to death, every mouse received an injection of vincristine (1 mg/kg) to arrest cells on metaphase. Intestines were resected, flushed and weighed. Fragments were collected for total DNA and protein content. Other fragments were formalin fixed and used for routine processing or intestinal microdissection of villi and crypts. Morphometric procedures on the microscopic slides were derived from the […] image processing system. The following parameters were considered in this study: Animal weight. Intestinal weight, protein and DNA content. Number of cells in metaphase per crypt. Number of branching crypts. Villous height. Crypts depth.

[3] = system: rat model of renal bilateral ischemia/reperfusion; assay: Renal ischemia/reperfusion, second phase (3 hours ischemia, similar reperfusion time); format: in vivo, Wistar rats; settings: 3 h ischemia; for Urine output during the reperfusion period: EGF 20 μg, GHRP 50 μg, combination, mean and SD
Experimental: (§1) Renal arteries were clamped with microvascular clamps (Moria, Fine Science Tools, USA) for 60 minutes. After 3 hours of reperfusion the animals were monitored for another 30 minutes to establish renal functioning.
(§2) Glomerular filtration rate (GFR) and the renal plasmatic flow (RPF) were studied using molecular weight markers as inulin and p-amino hypuric. Clearance coefficients were determined as follows:
(§3) A catheter was fixed in the urinary bladder and the urethra was clamped. The free end of the catheter was inserted in a graduated tube and the urine volume was collected during 10 minutes.
(§4) Renal tissue samples were fixed in 10% buffered formalin, paraffin embedded, H&E stained and studied by independent pathologists using the following criteria: number of collapsed glomeruli, cortical hemorrhage, medullar hemorrhage, severe tubular damage, and severe interstitial damage.
During a second phase study, a larger ischemia period was introduced which allowed for studying the effect of the peptide in a more practical model with respect to the clinical practice. Kidneys were exposed to a 3 hours ischemia period and a similar reperfusion time.

[4] = system: rat model of renal bilateral ischemia/reperfusion; assay: Renal bilateral ischemia/reperfusion, first phase (1 hour ischemia, 3 hour reperfusion); format: in vivo, Wistar rats; settings: 1 h ischemia, 3 h reperfusion; for Glomerular Filtration Rate / Renal Plasmatic Flow / Urine output during the reperfusion period: EGF 20 μg; for Glomerular Filtration Rate / Renal Plasmatic Flow: GHRP-6 50 μg, combination EGF 5 μg + GHRP-6 10 μg per rat i.p.; for Urine output during the reperfusion period: i.p. 30 min before ischemia, GHRP 50 μg, combination EGF 5 μg + GHRP-6 10 μg per rat, mean and SD; for Renal failure / oliguria, result in words: versus saline-treated ischemic controls
Experimental: The potential nephroprotective effects of each of the peptides alone or in combination was studied in a rat model of renal bilateral ischemia/reperfusion. In a first phase trial, a ischemia period of 1 hour followed by a 3 hour reperfusion period was established. Female Wistar rats (200-220 g) were randomly assigned to the following experimental groups (N=10):
Group II: Ischemic and normal saline solution 0.9%.
Group IV: Ischemic and GHRP −6-50 μg/rat.
All the treatments were intraperitoneally administered 30 minutes before ischemia.
as §1, §2
Uv(m) maximal urine volume per minute. […]
as §3
Renal tissue samples were homogenized in KCI/histidine (pH7.3) buffer and the supernatant was used to measure the activity of the enzymes PLA2, catalase, as the MDA reactive metabolite.
as §4, with “damage. […] GHRP-6 intervention increased urine formation 4 times as compared to saline treated animals, which argues in favor of renal functional protection.” for “damage.”

[5] = system: Intestinal Ischemia/Reperfusion Model; assay: Survival after intestinal ischemia/reperfusion, monitored for 96 hours; format: in vivo, Sprague Dawley rats; settings: 96 hours of reperfusion; N = 10; EGF 500 μg, GHRP-6 100 μg, EGF 5 μg + GHRP-6 2 μg
Experimental: In order to fully elucidate the protective effect of the combination treatment in this model of intestinal ischemia/reperfusion, survival was monitored until 96 hours of reperfusion.
A second and independent experiment was conducted in order to learn if the combination stimulated animals' survival. Experimental methodology is as described above. All the rats received an intraperitoneal injection of lactated Ringer following wound closure. Animals were monitored for 96 hours once reperfusion was initiated. […] (Table 9).

[6] = system: gastric mucosa of animals exposed to a severe systemic stress; assay: Acute gastric stress damage model (cold swim and restraint); format: in vivo, OF-1 mice
Experimental: Adult, male OF-1 mice (20-23 g) were randomly assigned to receive GHRP-6 (0.1 μg/animal) or normal saline solution 0.9% (both i.p.). Ten to thirty minutes later animals were forced to swim in cold water for 30 minutes and later restrained for another 20 minute period at 4° C. Animals were thereafter anesthetized and euthanized for gastric mucosa inspection. Samples were fixed in 10% buffered formalin and H&E, and PAS stained for microscopic examination. Erosion, hemorrhage, and ulceration were the gross pathology criteria considered in the experiment (Playford RJ. Peptides and gastrointestinal mucosa integrity. Gut 1995, 37: 595-597). Microscopic ulceration was only considered when deeper than the first third of the glandular mucosa. Luminal bleeding was studied by measuring hemoglobin by the cyano metahemoglobin method (Reactivos Spinreact, Barcelona). Data were expressed in g/dL. All determinations were done in a blind fashion using a sham group.

[7] = EGF 500 μg, GHRP-6 100 μg, combination EGF 5 μg + GHRP-6 2 μg per rat i.p.
[8] = GHRP-6 0.1 μg/animal i.p. 10-30 min before stress, 20 mice per group

Substance	Intestinal mucosal protection, result in words [1]	Final weight (body weight) [2]	Crypts depth [2]	No. of crypts in fission (×200) [2]	Villous height [2]	% Increase of body weight [2]	No. of metaphases per crypt (×200) [2]	Nephroprotection / urine volume, result in words [3]	Percent of animals/group showing Cortical Hemorrhage [3]	Percent of animals/group showing Damaged Glomeruli [3]	Percent of animals/group showing Interstitial Damage [3]	Percent of animals/group showing Medullar Hemorrhage [3]	Urine output during the reperfusion period [3]	Glomerular Filtration Rate [4]	Renal Plasmatic Flow [4]	Urine output during the reperfusion period [4]	Renal failure / oliguria, result in words [4]	other results
EGF: Epidermal Growth Factor of natural, synthetic or recombinant origins	minimal protection	28.2 ± 3.3	48 ± 9 μm	25 ± 8	118.7 ± 19 μm	27%	101 ± 35	negligible and contains hemoglobin	70%	80%	80%	80%	83 ± 21	0.3 ± 0.15 ml/min/100 g	1.2 ± 0.61 ml/min/100 g	114 ± 51	attenuated the oliguria; also recorded: partially attenuate renal failure	DMA content [1, 7]: 0.4 ± 0.11 µg/cm; Luminal hemoglobin [1, 7]: 3.5 ± 1.02 g/dL; Mucosal Weight [1, 7]: 10.7 ± 4.5 g; Proteins Content [1, 7]: 1.08 ± 0.6 mg/cm; % of intestinal damage ([1]; i.p. 30 min before ischemia, EGF 500 μg, GHRP-6 100 μg, combination EGF 5 μg + GHRP-6 2 μg per rat, mean and SD): 78.7 ± 2.8%; Glomerular Filtration Rate [3]: 0.24 ± 0.15 ml/min/100 g; Renal Plasmatic Flow [3]: 0.6 ± 0.05 ml/min/100 g
H[dW]AW[dF]K-NH2 [GHRP-6]	partial protection	28.4 ± 1.8	40.8 ± 13 μm	19 ± 6	99.2 ± 10 μm	23%	59 ± 12	Partial nephroprotection	40♦ percent	60♦ percent	30♦ percent	80%	168 ± 33	0.46 ± 0.23 ml/min/100 g	1.88 ± 0.8 ml/min/100 g	208 ± 47	partially attenuate renal failure	Survival (%) [5]: 40%; Percent of animals/group showing Tubular Damage [3]: 50♦ percent; Epithelial Erosion, number of animals [6, 8]: 6; Epithelial Erosion, percent of animals [6, 8]: 30%; Luminal Hemorrhage, number of animals [6, 8]: 0 (0%)*; Luminal Hemorrhage, percent of animals [6, 8]: 0 (0%)*; Mucosal Hemorrhage, number of animals [6, 8]: 0 (0%)*; Mucosal Hemorrhage, percent of animals [6, 8]: 0 (0%)*; Total of ulcers ([6]; GHRP-6 0.1 μg/animal i.p., 20 mice per group): 3*; Luminal hemoglobin ([6]; GHRP-6 0.1 μg/animal i.p., cyano metahemoglobin method): 0* g/dL; Increase of urine formation compared to saline treated animals ([4]; GHRP-6 50 μg/rat i.p.): 4 times
